Assay results: patent US9539226B2, “Composition containing serine as an active ingredient for the prevention and treatment of fatty liver diseases, and the use thereof” (SNU R&DB FOUNDATION, priority 2010, dated 2017)

Assays:
[1] = test system: acute fatty liver induced mouse model fed by alcohol; assay: Fatty liver formation in acute fatty liver induced mouse model fed by alcohol (triglyceride level); assay type: in vivo; details: high dose group, 200 mg/kg L-serine orally twice plus ethanol
Experimental: In order to investigate the inhibitory effect on the formation of fatty liver in acute fatty liver induced mouse model fed with alcohol, following experiment was performed according to the modified procedure disclosed in literature (Song et al., S-Adenosylmethione protects against acute alcohol induced hepatotoxicity in mice, J. Nutr. Biochem. 14:591-597, 2003). Male C57/BL mouse (19-21 g) procured from Central Lab. Animal Inc. (www.labanimal.co.kr) was bred according to GLP (Good Laboratory Practice) guideline in animal breeding room providing freely accessible water and solid feed, and acclimated with environment for 7 days before use. The breeding room was controlled by automatic light system from 8:00 A.M. to 8:00 P.M, for 12 hours with adjusting the temperature to 24° C. and the mouse was freely let to access to water and feed. […] The ALT (s-GPT) enzyme activity was determined by analysis kit (YD diagnostics Inc, www.yd-diagnostics.com) according to the Reitman-Frankel method disclosed in preceding literature. The level of triglyceride in […] was determined by analysis kit analysis kit (Cat. No. TR0100, Sigma Aldrich Corp.) and the result was shown in FIG. 2.

H4IIEC3 cell = assay: Ethanol induced lipid accumulation in H4IIEC3 (Nile red staining); assay type: cell-based, rodent; details: H4IIEC3 cells, ethanol plus L-serine (0.1, 1, 10 mM tested; concentration of this value not stated), 48 hrs; ethanol control 63.4 unit; P<0.05
Experimental: In order to investigate the inhibitory effect of the test sample on ethanol induced lipid accumulation in H4IIEc3, following experiment was performed according to the modified procedure disclosed in literature (Yin et al., Honokiol reverses alcoholic fatty liver by inhibiting the maturation of sterol regulatory element binding protein-1c and expression of its downstream lipogenesis genes: Toxicol. Appl. Pharmacol. 236:124-130, 2009). H4IIEC 3 cell, a rodent liver cancer cell line, was procured from ATCC (American Type Culture Collection) and used in the experiment. The cell was cultured in RPMI1640 medium supplemented with 10% FBS, 100 U/ml of penicillin, […] of streptomycin at 37° C. in 5% CO2 incubator and 1 ml of the cell was distributed to 96-well (1×10^4/ml) to be stabilized until the cell had grown completely for 12-16 hours in 5% CO2 incubator. The cell was treated with ethanol or combination with ethanol with various concentration of L-serine (0.1 mM, 1 mM, and 10 mM) to incubate for 48 hrs. […] The inhibition of lipid accumulation was determined by determining the fluorescence intensity of the Nil red changed by accumulated lipid induced by alcohol 5 mins after Nile red treatment through the observation with microscopy or microplate reader at 480 nm/580 nm.

chronic ethanol fed rats = assay: Hepatotoxicity and fatty liver in chronic ethanol fed rats (serum ALT, liver triglyceride); assay type: in vivo; details: wistar rat, ethanol diet with L-serine for 4 weeks (dose group not stated)
Experimental: In order to investigate the effects of L-serine on the hepatotoxicity and fatty liver in chronic ethanol fed rats, ALT (s-GPT) enzyme activity in the serum and triglyceride level in the liver was determined according to the modified procedure disclosed in literature (Lee et al., Effect of Chlorella vulgaris on lipid metabolism in wistar rats fed high fat diet, Nut. […]. 2:204-210, 2008). Male wistar rat (170-190 g) procured from Central Lab. Animal Inc. (www.labanimal.co.kr) was bred according to GLP (Good Laboratory Practice) guideline in animal breeding room providing freely accessible water and solid feed, and acclimated with environment for 7 days before use. The breeding room was controlled by automatic light system from 8:00 A.M. to 8:00 P.M, for 12 hours with adjusting the temperature to 24° C. During the experiment, the rat was fed with liquid diet (Standard […].com) for providing appropriate calorie. […] The ALT (s-GPT) enzyme activity was determined by analysis kit (YD diagnostics Inc, www.yd-diagnostics.com) according to the Reitman-Frankel method disclosed in preceding literature. The level of triglyceride in the rat liver was determined by analysis kit analysis kit (Cat. No. TR0100, Sigma Aldrich Corp.) and the result was shown in FIG. 4.

SREBP1 = SREBP1 expression by Western blot in acute fatty liver induced mouse model fed by alcohol; assay type: in vivo; details: FIG. 3
Experimental: (§1) In order to confirm whether the anti-steatotic effects of L-serine on alcoholic fatty liver is caused by the inhibition of SREBP1 activity or not, following experiment was performed according to the modified procedure disclosed in literature (Yin et al., Magnolia officinalis reverses alcoholic fatty liver by inhibiting the maturation of sterol regulatory element binding protein-1c, J. Pharmacol. Sci. 109:486-495, 2009). The expression of SREBP1 and its target gene product FAS were determined by the standard Western blot analysis using specific antibodies.

FAS = FAS expression by Western blot in acute fatty liver induced mouse model fed by alcohol; assay type: in vivo; details: FIG. 3
Experimental: as §1

SMILES: N[C@@H](CO)C(=O)O [L-serine]
- triglyceride level reduced by ([1]; C57/BL mouse): 58.5%
- triglyceride level ([1]; ethanol treatment group 99.7 mg/g): 52.4 mg/g
- fluorescence intensity of Nile red (lipid accumulation) (H4IIEC3 cell): 29 unit
- hepatic triglyceride level (chronic ethanol fed rats; liver, ethanol group 91.69 mg/g liver): 53.4 mg/g liver
- ALT enzyme activity (chronic ethanol fed rats; serum, ethanol group 42.5 U/L): 24.67 U/L
- SREBP1 activation (SREBP1): inhibited
- FAS activation (FAS): inhibited
